Data set [1] has as its system amastigote form of T. cruzi. In words: In vitro amastigote activity assay (alamarBlue, intracellular parasites in macrophages). Particulars: for IC50: Trypanosoma cruzi, Macrophage, amastigote form of T. cruzi in macrophages, 24 h with compound at 37 °C, mean ± standard deviation; for SI (selectivity index, CC50/IC50): against the amastigote form of T. cruzi, CC50 murine macrophages. The class given is cell-based, Trypanosoma cruzi. The procedure:
To perform the assay against the intracellular form of the parasite, the same colorimetric method based on the alamarBlue was developed. To produce the internalization of the parasites, an excess of epimastigote forms were added (10^5:10^4 parasites/macrophages in 100 µL of DMEM) to a 96-well plate for 24 h at 37 °C. Then, the wells were washed 3 times to eliminate the non-internalized parasites, and the serial dilutions of the compounds were added and dissolved in DMEM medium. After another incubation of 24 h at 37 °C, the drugs were eliminated and the cells were lysed with 0.05% SDS for 30 s. After adding LIT in a final volume of 200 µL and 10% of alamarBlue™ reagent, the plates were incubated for 96 h to promote the externalization of the parasites. Finally, the fluorescence was read using the EnSpire Multimode Plate Reader® and the inhibitory concentration 50 (IC50) was calculated. Inhibitory and cytotoxic concentrations (IC50, IC90, and CC50) were determined in duplicate on three different days using non-linear regression [Inhibitor] vs. response variable slope (four parameters) using non-linear regression analysis with 95% confidence, using GraphPad Prism 10.1.1 statistical software. The analysis was developed using Tukey’s test, considering significant values of p < 0.05. ANOVA analysis was also performed using GraphPad Prism 10.1.1.

The test system of data set [2] is epimastigote form of T. cruzi. Description: In vitro epimastigote activity assay (alamarBlue). The class given is cell-based, Trypanosoma cruzi strain Y. The settings on record: for IC50: Trypanosoma cruzi, 72 h, epimastigote form of T. cruzi, 72 h incubation at 26 °C, mean ± standard deviation; for SI (selectivity index, CC50/IC50): against the epimastigote form of T. cruzi, CC50 murine macrophages. Here is the method:
This assay is based on the use of alamarBlue. The alamarBlue reagent contains resazurin, which emits blue fluorescence under normal conditions. However, when the parasites are still alive and in contact with cell metabolism, the reagent is reduced to resorufin, which emits pink fluorescence.
In 96-well plates, serial dilutions of each compound were added with parasites at a concentration of 10^6 cells/mL in a final volume of 200 µL. Finally, 10% alamarBlue reagent was added, with 20 µL per well.
After 72 h of incubation at 26 °C, the plate was introduced into the plate reader and the fluorescence (570 nm excitation, 585 nm emission) of each well was determined using the EnSpire Multimode Plate Reader® (PerkinElmer, Thermo Fischer Scientific, Madrid, Spain). Finally, using a non-linear regression analysis in Graphpad Prism 9.0.0. the inhibitory concentration 50 (IC50) was calculated.
Inhibitory and cytotoxic concentrations (IC50, IC90, and CC50) were determined in duplicate on three different days using non-linear regression [Inhibitor] vs. response variable slope (four parameters) using non-linear regression analysis with 95% confidence, using GraphPad Prism 10.1.1 statistical software. The analysis was developed using Tukey’s test, considering significant values of p < 0.05. ANOVA analysis was also performed using GraphPad Prism 10.1.1.

The test system of data set [3] is L3 larvae of Culex pipiens. Description: Larvicidal (in vivo toxicity) assay against mosquito larvae. The procedure:
The L3 larvae from Culex pipiens, used in the cytotoxicity assay, were cultured at the Laboratorio de Entomología Médica of the Instituto Universitario de Enfermedades Tropicales y Salud Pública de Canarias in Tenerife, Spain.
For this purpose, 3 mL of sterile water with food for 48 h was added to 24-well plates, following WHO guidelines of necessary nutrients. In each well, one L3 larva of Culex pipiens was added, together with different concentrations of the compounds to be tested (IC90 and two times IC90). In addition, negative controls, without treatment and with the maximum amount of DMSO added in the treatments, and positive controls, benznidazole as the reference treatment and triton, previously reported to be toxic to larvae, were added. All experiments were performed in duplicate and repeated on 3 different days, observing larval viability at different times (1, 3, 12, 24, and 48 h after the start of treatment).

The subject of data set [4] is Murine macrophages J774.A1. In words: Cytotoxicity assay (alamarBlue). The class given is cell-based. The settings on record: for IC50 (cytotoxic concentration 50, CC50): 24 h. Here is the method: Murine macrophages J774.A1 strain ATCC #TIB-67, acquired from American Type Culture Collection (ATTC, LGC Promochem, Barcelona, Spain), were cultured in DMEM medium and maintained at 37 °C and 5% CO2. This assay followed the same principle as the previous one, but in this case, macrophages were used instead of parasites to determine the toxicity of the compounds. A total of 50 μL with a concentration of 2 × 10^5 cells/mL was added to each well with serial dilutions of the compounds in 50 μL of RPMI medium. After this, 10% of alamarBlue™ reagent was added and the plate was incubated at 37 °C and 5% CO2 for 24 h. After this time, the fluorescence was read using the EnSpire Multimode Plate Reader® and the cytotoxic concentration 50 (IC50) was calculated. Inhibitory and cytotoxic concentrations (IC50, IC90, and CC50) were determined in duplicate on three different days using non-linear regression [Inhibitor] vs. response variable slope (four parameters) using non-linear regression analysis with 95% confidence, using GraphPad Prism 10.1.1 statistical software. The analysis was developed using Tukey’s test, considering significant values of p < 0.05. ANOVA analysis was also performed using GraphPad Prism 10.1.1.

Setting [5] is: 2IC90 (two times IC90) of compound, 1 h.
Where [6] appears, read: 2IC90 (two times IC90) of compound, 3 h.
The mark [7] stands for this setting: 2IC90 (two times IC90) of compound, 12 h.
Setting [8] is: 2IC90 (two times IC90) of compound, 24 h.
Where [9] appears, read: 2IC90 (two times IC90) of compound, 48 h.
Setting [10] is: murine macrophages, mean ± standard deviation.

These results are taken from article PMC11436024, “E-Cyanoacrylamides and 5-Imino Pyrrolones against Trypanosoma cruzi: Activity and Induced Mechanisms of Cell Death” (Tropical Medicine and Infectious Disease, 2024).

Where only a bound is given, the exact number is not on record here.

Consider `N#C/C=C/C(=O)NCc1ccccc1` [C], for which the IC50 is 24.1 ± 6.22 µM in data set [1] and 18.8 ± 2.03 µM in data set [2]. For the same molecule, the “SI (selectivity index, CC50/IC50)” value in data set [1] was determined as 8.6. Also, the larval viability entry in data set [3] (setting [5]) is “Alive”; in data set [3] (setting [6]), “Alive”; in data set [3] (setting [7]), “Alive”; in data set [3] (setting [8]), “Alive”; in data set [3] (setting [9]), “Alive”; in data set [3] (IC90 of compound, 1 h), “Alive”. Also, the larval viability result is on record as “Alive” in data set [3] (IC90 of compound, 3 h); “Alive” in data set [3] (IC90 of compound, 12 h); “Alive” in data set [3] (IC90 of compound, 24 h); “Alive” in data set [3] (IC90 of compound, 48 h). Besides, the “IC50 (cytotoxic concentration 50, CC50)” value in data set [4] (setting [10]) came out at 208.01 ± 13.44 µM.

For the molecule Triton [reference compound], the larval viability result is “Alive” in data set [3] (0.01%, 1 h); “Alive” in data set [3] (0.01%, 3 h); “Dead” in data set [3] (0.01%, 12 h); “Dead” in data set [3] (0.01%, 24 h); “Dead” in data set [3] (0.01%, 48 h); “Alive” in data set [3] (0.5%, 1 h). Besides, the larval viability result in data set [3] (0.5%, 3 h) was “Dead”; in data set [3] (0.5%, 12 h), “Dead”; in data set [3] (0.5%, 24 h), “Dead”; in data set [3] (0.5%, 48 h) it was “Dead”; in data set [3] (1%, 1 h) it was “Dead”; in data set [3] (1%, 3 h), “Dead”. Also, the larval viability entry was “Dead” in data set [3] (1%, 12 h); “Dead” in data set [3] (1%, 24 h); “Dead” in data set [3] (1%, 48 h).

With `COc1ccc(NC(=O)/C=C/C#N)cc1` [G], the IC50 in data set [1] came to 10.6 ± 3.05 µM; in data set [2], 20.7 ± 2.66 µM. Also, the “SI (selectivity index, CC50/IC50)” value in data set [1] came out at 25.2. Further, the larval viability result in data set [3] (setting [5]) is reported as “Alive”; in data set [3] (setting [6]), “Alive”; in data set [3] (setting [7]), “Alive”; in data set [3] (setting [8]), “Alive”; in data set [3] (setting [9]), “Alive”; in data set [3] (IC90 of compound, 1 h), “Alive”. Besides, the larval viability entry in data set [3] (IC90 of compound, 3 h) is listed as “Alive”; in data set [3] (IC90 of compound, 12 h), “Alive”; in data set [3] (IC90 of compound, 24 h), “Alive”; in data set [3] (IC90 of compound, 48 h), “Alive”. The “IC50 (cytotoxic concentration 50, CC50)” value in data set [4] (setting [10]) is reported as 266.62 ± 42.48 µM.

With `N=C1C=CC(=O)N1Cc1ccccc1` [D], in data set [2], the IC50 is 12.4 ± 1.49 µM and the “SI (selectivity index, CC50/IC50)” value came to 6.9. For the same molecule, the “IC50 (cytotoxic concentration 50, CC50)” value in data set [4] (mouse) was found to be 85.32 ± 3.71 µM.

In the case of `COc1ccc(CN2C(=N)C=CC2=O)cc1` [F], the “SI (selectivity index, CC50/IC50)” value in data set [2] turned out to be 0.8. In data set [4] (mouse), the “IC50 (cytotoxic concentration 50, CC50)” value was 2.82 ± 1.39 µM.

On to `COc1ccc(N2C(=N)C=CC2=O)cc1` [H], for which, in data set [2], the “SI (selectivity index, CC50/IC50)” value amounted to 0.9. Also, the “toxicity of Z isomer relative to E isomer (times more toxic)” value in data set [4] (G–H isomer pair, murine macrophages) stood at 100. Further, the “IC50 (cytotoxic concentration 50, CC50)” value in data set [4] (setting [10]) came out at 2.42 ± 1.58 µM.

For the molecule `N#C/C=C/C(=O)Nc1ccccc1` [A], in data set [2], inhibition was half-maximal at 18.7 ± 1.9 µM (IC50) and the “SI (selectivity index, CC50/IC50)” value worked out at 5.1. Further, in data set [4] (setting [10]), the “IC50 (cytotoxic concentration 50, CC50)” value is on record as 94.78 ± 23.11 µM.

`O=C(Cn1ccnc1[N+](=O)[O-])NCc1ccccc1` [Benznidazole, reference compound]: the figures for the IC50 in data set [1] and in data set [2] were 2.67 ± 0.39 µM and 6.92 ± 0.77 µM, respectively. In addition, the “SI (selectivity index, CC50/IC50)” value was determined as 149.8 in data set [1] and 57.8 in data set [2]. The larval viability result in data set [3] (setting [5]) is given as “Alive”; in data set [3] (setting [6]), “Alive”; in data set [3] (setting [7]), “Alive”; in data set [3] (setting [8]), “Alive”; in data set [3] (setting [9]), “Alive”; in data set [3] (IC90 of compound, 1 h) it was “Alive”. Besides, the larval viability entry in data set [3] (IC90 of compound, 3 h) is recorded as “Alive”; in data set [3] (IC90 of compound, 12 h), “Alive”; in data set [3] (IC90 of compound, 24 h), “Alive”; in data set [3] (IC90 of compound, 48 h), “Alive”. Also, the “IC50 (cytotoxic concentration 50, CC50)” value in data set [4] (setting [10]) is 399.91 ± 1.40 µM.

For the molecule `COc1ccc(CNC(=O)/C=C/C#N)cc1` [E], in data set [2], the IC50 was above 100 µM and the “SI (selectivity index, CC50/IC50)” value is reported as below 3.2. Also, the “IC50 (cytotoxic concentration 50, CC50)” value in data set [4] (setting [10]) came to 319.61 ± 60.22 µM.
